We go through one molecule from patent US9049874B2, “Use of azaperone for reducing antibiotic usage” (Elanco Animal Health Ireland Limited, priority 2008, dated 2015).

This assay concerns weaned pigs. Description: Preclinical study of the effects of azaperone administered via drinking water: therapeutic usage of antibiotics. It is filed as in vivo. As to conditions: for number of pigs treated (therapeutic use of antibiotics): 6 mg azaperone per liter drinking water for first 3 days. As for the experimental part: The study was performed in weaned pigs to investigate the effect of azaperone that was continuously orally administered via drinking water on postweaning diarrhoea and associated usage of antibiotics, behaviour, feed conversion, growth and homogeneity of growth. Groups of approximately 250 pigs were enrolled in the study starting from the moment they were weaned. The pigs were housed according to everyday farming conditions in a conventional pig farm. All pigs were housed in similar buildings. Each group was housed in 2 compartments, gilts and barrows were housed in separate compartments. Pigs were kept in pens of approximately 12 individuals each. After weaning, the piglets were housed in continuous artificial light for the first 48 hours. Afterwards, pigs were housed in continuous darkness for the further duration of the study, except during observations (twice a day). During the course of the study, pigs were not vaccinated. A metaphylactic colistine treatment via drinking water was applied in each group starting from the fifth day after weaning. Treatment continued for seven days. Pigs were fed ad libitum. Troughs were filled automatically with a computerized system that records the supplied weight of feed per pen. During the first ten days of the nursery period, pigs were fed a pelleted weaner feed which had also been available to the piglets in the farrowing unit. Between the 10th and 15th day at the nursery, the weaner feed was gradually replaced by grower pellets which have been given until the 35th day. Finally a switch was made between the 35th and the 40th day from grower pellets to starter pellets. Tap water was available during the whole period of the study and was supplied via a water nipple in the feeding trough. The drinking water comprising azaperone was obtained by diluting Stresnil™ injection in water to obtain a concentration of 6 mg azaperone per liter drinking water. A primary dilution was prepared by diluting 90 ml of Stresnil™ 4% injectable solution with tap water to obtain 6 liters of preparation. This primary dilution was linked for 24 hours with an automatic dosing system which continuously diluted the preparation in the drinking water at a rate of 1 to 100. One preparation of the primary dilution was sufficient to treat 600 liters of drinking water which exceeded the anticipated daily consumed volume of water by the pigs in one compartment. The two following days, a new primary dilution was made fresh each morning and linked to the automatic dosing system for 24 hours. This study was a controlled parallel study with 4 sequential groups of approximately 250 weaned pigs each. The first and third group were treated with azaperone via the drinking water for 3 consecutive days. The second and fourth group were control groups treated with placebo (plain drinking water). [table] On day one of the test period, water containing 6 mg azaperone per liter or placebo, was made available. Starting from the fourth day, the drinking water no longer contained azaperone. All pigs followed the normal procedures for further fattening. No pigs were brought to the slaughterhouse during the study (3 days dosing and 39 days follow-up). In order to assess the effect of the oral azaperone administration on the onset of postweaning diarrhoea and concomittant therapeutic usage of antibiotics, the occurrence of diarrhoea was followed in groups 1 to 4 and recorded daily by the Principal Investigator. All individual pens were checked by the Principal Investigator and a diarrhoea score was noted as follows: Any use of antibiotics in groups 1 to 4 was recorded the first three weeks after weaning and grouping of the animals. The decision to treat an animal with antibiotics was made by the Principal Investigator according to everyday practice on that farm.

[1] abbreviates: during the nursery period, azaperone-treated group.

With `O=C(CCCN1CCN(c2ccccn2)CC1)c1ccc(F)cc1` [azaperone], where the note is “6 mg/liter water during first three days of 42 day test period”, the “usage of antibiotics compared to placebo-treated groups” value is “significant reduction of the usage of antibiotics”. Further, the “number of piglets treated with antibiotics (conclusion)” value (6 mg/liter water during first three days of 42 day test period, vs. 29 in placebo) was 11. Besides, the “number of individual antibiotic treatments (conclusion)” value (6 mg/liter water during first three days of 42 day test period, vs. 33 in placebo) is on record as 13. Under setting [1], the “number of ampicilline injections” value stood at 1, the “number of enrofloxacine injections” value was found to be 4, the “number of oxytetracycline injections” value is 2 and the “number of piglets treated with antibiotics for curative reasons” value is given as 7 piglets. Moreover, the “total number of individual injections with antibiotics” value under setting [1] was found to be 7 injections. Moreover, the “number of pigs treated (therapeutic use of antibiotics)” value (“number of pigs treated” for short) (week 1 after weaning) was found to be 4. The “number of pigs treated” value (week 2 after weaning) worked out at 3. For the same molecule, where the note is “week 3 after weaning”, the “number of pigs treated” value amounted to 0.
